A value given as a limit tells only on which side of the number the result lay.

What all share (format): cell-based
Assay [1] has as its system KRAS G12C mutant NSCLC cell line HOP-62. The assay is described as follows: IC50 shift experiment, cell proliferation (Cell Titer Glo), 144 h. To be noted: for IC50: Homo sapiens, TEAD inhibitor alone, 144 h, read-out: IC50 TEADi; for KRAS G12Ci No1 fold change vs 0.1 μM: IC50 shift of KRAS G12C inhibitor N°1, no TEADi vs TEAD inhibitor 0.1 μM; for KRAS G12Ci No1 fold change vs 1 μM: IC50 shift of KRAS G12C inhibitor N°1, no TEADi vs TEAD inhibitor 1 μM; for KRAS G12Ci No2 fold change vs 0.1 μM: IC50 shift of KRAS G12C inhibitor N°2, no TEADi vs TEAD inhibitor 0.1 μM; for KRAS G12Ci No2 fold change vs 1 μM: IC50 shift of KRAS G12C inhibitor N°2, no TEADi vs TEAD inhibitor 1 μM. On the procedure: The KRAS G12C mutant NSCLC cell line HOP-62 was used for this study. Cells were seeded in 96 well plates at 1250 cells per well and incubated 24 hours at 37° C. and 5% CO2. The KRAS G12C inhibitors N°1 and N°2 were used at 10 concentrations and combined with TEAD inhibitors used at 2 concentrations. Compound dilution and distribution to cells was performed on the TECAN MCA384 robotic platform. […] Cell proliferation was measured using Cell Titer Glo from PROMEGA (luminescence). For each KRAS G12C inhibitor, IC50 values in these cell lines were determined in the absence or presence of TEAD inhibitors.

Assay [2] deals with H-2030 KRAS G12C mutant NSCLC cells. The assay can be described thus: Ray design combination experiment, cell proliferation (Cell Titer Glo), 144 h. The note with it: potentiation of KRAS G12C inhibitor N°1 IC50 by the TEAD inhibitor at 41 nM, Ki = potentiation index IC50ai/IC50a. On the procedure:
(§1) The NSCLC cell line H-2030 which carries a KRASG12C mutation was used for this study. H-2030 cells were seeded in 384 well plates at 250 cells per well and incubated 24 hours at 37° C. and 5% CO2. The KRAS G12C inhibitor N°1 used at 14 concentrations ranging from 10,000 nM to 0.006 nM was combined with TEAD inhibitors used at 18 concentrations ranging from 10,000 nM to 0.0001 nM, added to H-2030 cells and incubated for 144 hours at 37° C. and 5% CO2. Compound dilution and distribution to cells was performed on the TECAN MCA384 robotic platform. Cell proliferation was measured using Cell Titer Glo from PROMEGA (luminescence).
Three independent experiments with triplicates/experiment were performed and analyzed using the combination analysis software Combo2Screen. TEAD inhibitors were defined as non-active in this cell line, their effect on the KRAS G12C inhibitor was determined as an effect of potentiation and was quantified using the potentiation index based on the following equation: […]

Assay [3] relates to HOP-62 KRAS G12C mutant NSCLC cells. The assay is described as follows: Ray design combination experiment, cell proliferation (Cell Titer Glo), 96 h. The note with it: potentiation of KRAS G12C inhibitor N°1 IC50 by the TEAD inhibitor at 370 nM, Ki = potentiation index IC50ai/IC50a. On the procedure: as §1, with “line HOP62” for “line H-2030”, “study. HO-P62” for “study. H-2030”, “at 300” for “at 250”, “to HOP-62” for “to H-2030”, “for 96” for “for 144”
Three independent experiments with triplicates per experiment were performed and analyzed using the combination analysis software Combo2Screen. TEAD inhibitors were defined as non-active in this cell line, their effect on the KRAS G12C inhibitor was determined as an effect of potentiation and was quantified using the potentiation index based on the following equation: […]

Consider `C=CC(=O)Nc1ccc2c(c1)C(O[C@H]1CC[C@H](C(F)(F)F)CC1)CC2` (relative stereo) [TEAD inhibitor N°6, N-(3-(((trans)-4-(trifluoromethyl)cyclohexyl)oxy)-2,3-dihydro-1H-inden-5-yl) acrylamide], for which, in assay [1], the half-inhibitory concentration (IC50) was more than 10 µM, the “KRAS G12Ci No1 fold change vs 0.1 μM” value turned out to be 4 fold, the “KRAS G12Ci No1 fold change vs 1 μM” value came out at 6 fold and the “KRAS G12Ci No2 fold change vs 0.1 μM” value came out at 6 fold. Moreover, the “KRAS G12Ci No2 fold change vs 1 μM” value in assay [1] is listed as 8 fold.
For the compound `C=CC(=O)Nc1ccc(C)c(Oc2ccc(Cl)cc2)c1` [TEAD inhibitor N°1, N-(3-(4-chlorophenoxy)-4-methylphenyl) acrylamide, reference compound], the “Mean fold potentiation 1/Ki” value in assay [2] was found to be 33 fold. Moreover, the “Mean fold potentiation 1/Ki” value in assay [3] is given as 8 fold. Moreover, in assay [1], the IC50 worked out at 8.8 µM, the “KRAS G12Ci No1 fold change vs 0.1 μM” value is 8 fold and the “KRAS G12Ci No1 fold change vs 1 μM” value is 9 fold.
Turning to `C=CC(=O)Nc1ccc2c(c1)CCC2Nc1cccc(C(F)(F)F)c1` (stereo not shown) [TEAD inhibitor N°2, N-(1-((3-(trifluoromethyl)phenyl)amino)-2,3-dihydro-1H-inden-5-yl) acrylamide], the figures for the “Mean fold potentiation 1/Ki” value in assay [2] and in assay [3] were 18 fold and 8 fold, respectively.
As to `C=CC(=O)Nc1ccc2c(ccn2-c2ccc(C(F)(F)F)cc2)c1` [TEAD inhibitor N°3, N-(1-(4-(trifluoromethyl)phenyl)-1H-indol-5-yl) acrylamide], in assay [1], the half-inhibitory concentration (IC50) was more than 10 µM, the “KRAS G12Ci No1 fold change vs 0.1 μM” value was 6 fold, the “KRAS G12Ci No1 fold change vs 1 μM” value was 7 fold and the “KRAS G12Ci No2 fold change vs 0.1 μM” value is reported as 9 fold. Besides, in assay [1], the “KRAS G12Ci No2 fold change vs 1 μM” value was determined as 8 fold.
The like results for `C=CC(=O)Nc1ccc2c(c1)c(COC)cn2-c1ccc(C(F)(F)F)cc1` [TEAD inhibitor N°4, N-(3-(methoxymethyl)-1-(4-(trifluoromethyl)phenyl)-1H-indol-5-yl) acrylamide] were, in that order, more than 10 µM, 5 fold, 10 fold, 8 fold and 12 fold.
For `C=CC(=O)Nc1ccc2c(c1)c(C)cn2Cc1cccc(C(F)(F)F)c1` [TEAD inhibitor N°5, N-(3-methyl-1-(3-(trifluoromethyl)benzyl)-1H-indol-5-yl) acrylamide] the same measures were more than 10 µM, 4 fold, 7 fold, 8 fold and 13 fold.
For `C=CC(=O)Nc1ccc2c(c1)C(Nc1ccc(F)c(F)c1)CC2` (stereo not shown) [TEAD inhibitor N°7, N-(3-((3,4-difluorophenyl)amino)-2,3-dihydro-1H-inden-5-yl) acrylamide] the same measures were more than 10 µM, 6 fold, 13 fold, 9 fold and 21 fold.
Turning to `C=CC(=O)Nc1ccc2c(c1)C(Oc1ccc(C(F)(F)F)cc1)CC2` (stereo not shown) [TEAD inhibitor N°8, N-(3-(4-(trifluoromethyl)phenoxy)-2,3-dihydro-1H-inden-5-yl) acrylamide], in assay [1], the IC50 is more than 10 µM, the “KRAS G12Ci No1 fold change vs 0.1 μM” value is 6 fold, the “KRAS G12Ci No1 fold change vs 1 μM” value was found to be 9 fold and the “KRAS G12Ci No2 fold change vs 0.1 μM” value is recorded as 10 fold. For the same compound, in assay [1], the “KRAS G12Ci No2 fold change vs 1 μM” value is given as 12 fold.

Source of the values: US20250295664A1, “THERAPEUTIC COMBINATION OF KRAS G12C INHIBITOR AND TEAD INHIBITOR” (SANOFI, priority 2022, published 2025).
